19 compounds from paper PMC5108032, “Discovery of a Quinoline-4-carboxamide Derivative with a Novel Mechanism of Action, Multistage Antimalarial Activity, and Potent in Vivo Efficacy” (Journal of Medicinal Chemistry, 2016) can be followed below.

The subject of one data set is MRC-5 cell line. The data set is described as follows: Mammalian cell growth inhibition counter-screen (resazurin). It counts as cell-based, human. The conditions noted are these: Homo sapiens, MRC5; supplementary csv; read-out: Hs MRC-5 EC50. On the procedure:
(§1) Plasmodium falciparum screening
(§2) Assays against P. falciparum were conducted as previously described.1 Cultures of the widely-used malaria reference strain of chloroquine-sensitive Plasmodium falciparum strain 3D7 were maintained in a 5% suspension of human red blood cells (obtained from East of Scotland Blood Transfusion Service, Ninewells Hospital, Dundee) cultured in RPMI 1640 medium (pH 7.3) supplemented with 0.5% Albumax II (Gibco Life Technologies, San Diego, CA), 12 mM sodium bicarbonate, 0.2 mM hypoxanthine and 20 mg/L gentamicin at 37°C, in a humidified atmosphere of 1% O 2, 3% CO2 with a balance of nitrogen. Growth inhibition was quantified using a fluorescence assay utilising the binding of SYBR green to double stranded DNA, which emits a fluorescent signal at 528 nm after excitation at 485nm.2 Mefloquine (potency range 30-60 nM) was used as a drug control to monitor the quality of the assay (Z’ = 0.6 to 0.8, Signal to background >3, where Z’ is a measure of the discrimination between the positive and negative controls on a screen plate). A 96-well [3H]-Hypoxanthine incorporation assay was also developed as a secondary assay in order to validate compounds from the initial screen in an orthogonal platform.3 Compound bioactivity from both assays was expressed as […]
(§3) P. falciparum (panel of resistant strains) in vitro assay. (Swiss TPH)
(§4) All Plasmodium strains were cultured according to Trager and Jensen and are described at www.beiresources.org (resistant strains: K1, W2, 7G8, TM90C2A, D6 and V1/S, sensitive strain:
(§5) NF54). EC50 values were determined in vitro by measuring incorporation of the nucleic acid precursor […]
(§6) Mammalian Cell Growth Inhibition assay
(§7) A counter-screen against normal diploid human fibroblasts (MRC-5 cell line) was carried out to exclude non-selective, and toxic compounds. The assay was essentially carried out as described previously.4 Cells were plated and incubated overnight to allow them to adhere as monolayers. A working stock of each test compound was transferred to an intermediate 384-well plate and pre-diluted with minimum essential media (MEM). The pre-diluted stocks were then transferred onto the cell monolayers, and the plates were incubated for 68 h. Resazurin, to a final concentration of 50 μM, was added to each well, after which plates were incubated for a further 3 h and measured for fluorescence (λex=528 nm, λem=590 nm)
(§8) In vitro Cell Assay Data Analysis.
(§9) All data was processed using IDBS ActivityBase® raw data was converted into per cent inhibition through linear regression by setting the high inhibition control as 100% and the no inhibition control as 0%. Quality control criteria for passing plates were as follows: Z’> 0.5, S:B> 3, %CV(no inhibition < 15 . The formula used to calculate Z’ is 1 3× (St D e v _ hi gh + St D e v _ low) . […]
(§10) All EC50 Curve fitting was undertaken using XLFit version 4.2 using Model 205 with the following 4 parametric equation: y = A + B A A + ($-&) ,where A=% inhibition at bottom, B=% […]
(§11) inhibition at top, C= EC50, D= slope, x= inhibitor concentration and y= % inhibition. […]
(§12) reach 100% of inhibition, B was fixed to 100 only when at least 50% of inhibition was reached.
(§13) Plasmodium falciparum late stage (IV-V) gametocyte high content imaging assay Plasmodium falciparum NF54-pfs16-LUC-GFP stage IV-V Gametocytes were produced as described previously.5 Compounds were solubilized in DMSO and serially diluted in three concentrations per log standard curves in DM SO. One µl of compound was subsequently diluted in 25µl of water (4% DMSO) and 5µl transferred into the base of 384 well PerkinElmer CellCarrier plates. Forty-five µl of stage IV-V gametocytes (10%P in 0.1%H) were added to the imaging plates which were in turn sealed with a gas permeable membrane and incubated at 37°C, 5% CO 2, 5% O2, 90% N2 and 60% humidity […]
(§14) Post incubation, 5µl of MitoTracker® Red CM -H2Xros (MTR) solution (0.66ug/ml) was added to all wells and the plates incubated for a further 16hours. […]
(Counterscreens check selectivity or assay interference.)

The nature of data set [1]: Intrinsic clearance (Cli) in mouse liver microsomes. It counts as in vitro ADME.
Source text: as §11, §12, §13
Post incubation, 5µl of MitoTracker® Red CM -H2Xros (MTR) solution (0.66ug/ml) was added to all wells and the plates incubated for a further 16hours. The assay plates were then imaged and the number of viable gametocytes determined for test compounds plus 0.4%DMSO and 5µM Puromycin.
(0.4%DMSO) control values. Percent inhibition was plotted against log compound concentration using a 4 parameter log dose, non-linear regression analysis, with sigmoidal dose response (variable slope) curve fit using Prizm 4.0. IC50 values were obtained from this curve fit. The compound testing was performed in duplicate point within two separate experiments.
Plasmodium berghei ookinete development assay
Assay was performed as previously reported.6 Briefly blood containing P. berghei CTRPp-GFP gametocytes was rapidly harvested from infected mice and introduced to test compounds pre-diluted in ookinete medium (to induce gamete formation and support ookinete development) in 96-well plates. Plates were incubated in the dark at 21°C for 22 hr before GFP fluorescence intensity measured in a plate reader. % inhibition of ookinete formation was calculated with reference to the fluorescence intensity values of a positive control (20 µM cycloheximide) and a solvent-only negative control (DMSO). All assays were performed in triplicate independent experiments and EC50 values calculated in Graphpad Prism.
The aqueous solubility of the test compounds was measured using laser nephelometry, as described previously.7 Compounds were subject to serial dilution from 10 mg/mL to 0.5 mg/mL in DMSO. An aliquot was then mixed with MilliQ water to obtain an aqueous dilution plate with a final concentration range of 100 – 5 μg/mL, with a final DMSO concentration of 1.0%. Triplicate aliquots were transferred to a flat bottomed polystyrene plate which was immediately read on the NEPHELOstar (BMG Lab Technologies). The amount of laser scatter caused by insoluble particulates (relative nephelometry units, RNU) was plotted against compound concentration using a segmental regression fit, with the point of inflection being quoted as the compounds aqueous solubility (μg/mL; […]
Intrinsic Clearance (Cli) experiments
The procedure was carried out as reported previously.7 Test compound (0.5 µM) was incubated with female CD1 mouse, male sprague-dawley rat or pooled human mixed gender liver microsomes (Xenotech LLC TM; 0.5 mg/mL 50 mM potassium phosphate buffer, pH 7.4) and the reaction initiated […]
by the addition of excess NADPH (8 mg/mL 50 mM potassium phosphate buffer, pH 7.4).
Immediately, at time zero, then at 3, 6, 9, 15 and 30 min an aliquot (50 μL) of the incubation mixture was removed and mixed with acetonitrile (100 μL) to stop the reaction. Internal standard was added to all samples, the samples centrifuged to sediment precipitated protein and the plates then sealed prior to UPLC-MS/MS analysis using a Quattro Premier XE (Waters Corporation, USA).
XLfit (IDBS, UK) was used to calculate the exponential decay and consequently the rate constant (k) from the ratio of peak area of test compound to internal standard at each timepoint. The rate of […]
In general terms: Liver microsomes are vesicles of endoplasmic reticulum, rich in cytochrome P450 enzymes.

The subject of a further data set is Pf (3D7). The data set is described as follows: Ligand efficiency metrics (LE, LLE, LELP), selectivity and fold changes. Also noted: species or system Plasmodium falciparum. Particulars: for drop in potency: Pf (3D7), relative to the comparator compound of the sentence.
The nature of data set [2]: Mammalian cell growth inhibition counter-screen (resazurin). The conditions noted are these: human, MRC-5 cells (normal diploid human fibroblasts). The class given is cell-based, human. On the procedure: as §1, §2, §3, §4, §5, §6, §7, §8, §9, §10, §11, §12, §13, §14
Data set [3] concerns Plasmodium falciparum strain 3D7. Briefly: Plasmodium falciparum screening, SYBR green growth inhibition. It counts as cell-based. On the procedure: as §1, §2, §3, §4, §5, §6, §7, §8, §9, §10, §11, §12, §13, §14
The next data set relates to P. berghei ANKA strain. Briefly: In vivo antimalarial efficacy in the P. berghei mouse model (Peter's test). Also noted: species or system Plasmodium berghei in female NMRI mice. The conditions noted are these: 4 × 10 mg/kg oral, once daily; mice cured / mice in group. On the procedure: Compound 41 was dosed as a bolus solution intravenously at 1 mg free base/kg (dose volume: 5 mL/kg; dose vehicle: 5% DMSO;saline) or by gavage orally as solution at 3 mg free base/kg (dose volume: 10 mL/kg; Dose vehicle: 0.5% w/v hydroxypropylmethylcellulose with 0.4% v/v Tween 80 and 0.5% v/v benzyl alcohol) to male Sprague Dawley rats (n=3/dose route). Blood samples were taken from each rat at 5, 15, 30 min, 1, 2, 4, 6, 8, 24 and 30 h post-dose, mixed with two volumes of distilled water and stored frozen until UPLC/MS/MS analysis.
Pharmacokinetic parameters were derived from the blood concentration time curve for each compound using PKsolutions software v 2.0 (Summit Research Services, USA).
In vivo antimalarial efficacy studies in P. berghei. (Swiss TPH)
In vivo efficacy was conducted as previously described10 with the modification that female NMRI mice (n = 3) were infected with a GFP-transfected P. berghei ANKA strain (donated by A. P. Waters and C. J. Janse, Leiden University, The Netherlands), and parasitaemia determined (96 h after infection) using standard flow cytometry techniques. Compounds 1, 25, 27, 30 and 49 were prepared in 10% DM SO, 40% PEG 400 and 50% water prior to administration orally, once daily for 4 days.
Compounds 40, 41, 43 and 44 were prepared in a non-solubilizing, standard suspension vehicle called HPMC (0.5% [wt/vol] hydroxypropylmethylcellulose, 0.5% [vol/vol] benzyl alcohol, 0.4% [vol/vol] Tween 80, and 0.9% [wt/vol] sodium chloride in water) prior to administration orally, once daily for 4 days. Blood samples were collected on day 4 (96 h after infection) in two volumes water. Animals […]
and then hourly up to 4 h after dosing each day. The animals were selected randomly for each group

[4] abbreviates: 3D7, supplementary csv, read-out: Pf (3D7) EC50.

Where two headings read alike, the source gives them in different places.

As for `O=C(NCCN1CCC(F)CC1)c1cc(NCCCN2CCOCC2)nc2ccc(F)cc12` [Compound 31], in the data set with MRC-5 cell line, the EC50 stood at 40.9 µM. For the compound `O=C(NCCN1CCC(F)(F)C1)c1cc(NCCCN2CCOCC2)nc2ccc(F)cc12` [Compound 35], the EC50 in the data set with MRC-5 cell line is > 50 µM. In the case of `O=C(NCCN1CCOCC1)c1cc(-c2ccc(CN3CCOCC3)cc2)nc2ccc(F)cc12` [Compound 46], the “MLM Cli” value in data set [1] (mouse liver microsome) is <0.5 mL min^–1 g^–1. Also, in the data set on Pf (3D7), the drop in potency is recorded as 12 fold. As for `Cc1ccc(-c2cc(C(=O)NCCN3CCCCC3)c3cc(Cl)ccc3n2)cc1` [Compound 17], the EC50 with MRC-5 cell line turned out to be 7.4 µM. For the compound `O=C(NCCN1CCCC1)c1cc(N2CCn3ccnc3C2)nc2ccc(F)cc12` [Compound 22, 2-(5,6-Dihydroimidazo[1,2-a]pyrazine-7(8H)-yl)-6-fluoro-N-(2-(pyrrolidin-1-yl)ethyl)quinoline-4-carboxamide], in data set [2], the EC50 at 68 h is > 50 µM. Still for that read-out and setting: under `O=C(NCCN1CCCC1)c1cc(-c2ccc(C(=O)N3CCOCC3)cc2)nc2ccc(F)cc12` [Compound 39, 6-Fluoro-2-(4-(morpholine-4-carbonyl)phenyl)-N-(2-(pyrrolidin-1-yl)ethyl)quinoline-4-carboxamide] stands > 50 µM. For `O=C(NCCNC1CC1)c1cc(-c2ccc(CN3CCOCC3)cc2)nc2ccc(F)cc12` [Compound 48, N-(2-(Cyclopropylamino)ethyl)-6-fluoro-2-(4-(morpholinomethyl)phenyl)quinoline-4-carboxamide], in data set [1] (mouse liver microsome), the “MLM Cli” value turned out to be 2 mL min^–1 g^–1. Besides, the EC50 in data set [3] (setting [4]) was found to be 0.0024 µM. On to `Cc1ccc(-c2cc(C(=O)Nc3cccnc3)c3cc(Br)ccc3n2)cc1` [Compound 1], for which, in the data set on Pf (3D7), the “LLE (ligand-lipophilicity efficiency)” value is recorded as 2.6. For `Cc1ccc(-c2cc(C(=O)NCCN3CCCC3)c3cc(F)ccc3n2)cc1` [Compound 19], the “LLE (ligand-lipophilicity efficiency)” value in the data set with Pf (3D7) came to 3.2. For the compound `O=C(NCCN1CCOCC1)c1cc(NCCCN2CCOCC2)nc2ccc(F)cc12` [Compound 32], in the data set with MRC-5 cell line, the EC50 was > 50 µM. Consider `O=C(NCCN1CCCC1)c1cc(N2CCC(N3CCOCC3)CC2)nc2ccc(Cl)cc12` [Compound 24, 6-Chloro-2-(4-morpholinopiperidin-1-yl)-N-(2-(pyrrolidin-1-yl)ethyl)quinoline-4-carboxamide], for which the “LLE (ligand-lipophilicity efficiency)” value with Pf (3D7) is listed as 4.2. As for `Cc1ccc(-c2cc(C(=O)NCCCN(C)C)c3cc(Cl)ccc3n2)cc1` [Compound 14, 6-Chloro-N-(3-(dimethylamino)propyl)-2-(p-tolyl)quinoline-4-carboxamide], the EC50 in the data set with MRC-5 cell line was 5.55 µM. On the same count and under the same terms, under `O=C(NCCN1CCC(F)(F)CC1)c1cc(NCCCN2CCOCC2)nc2ccc(F)cc12` [Compound 33] stands > 50 µM.

As to `OC(c1cc(C(F)(F)F)nc2c(C(F)(F)F)cccc12)C1CCCCN1` (centres unmarked) [Mefloquine, reference compound], the EC50 in data set [3] (3D7, quality control of the assay, read-out: potency range (drug control)) is 0.03 to 0.06 µM. For the compound `O=C(NCCN1CCCC1)c1cc(NCCN2CCOCC2)nc2ccc(F)cc12` [Compound 26, 6-Fluoro-2-((3-morpholinoethyl)amino)-N-(2-(pyrrolidin-1-yl)ethyl)quinoline-4-carboxamide], in data set [1] (mouse liver microsomes), the “MLM Cli” value is recorded as < 0.5 mL/min/g. For the compound `O=C(NCCN1CCCC(F)(F)C1)c1cc(NCCCN2CCOCC2)nc2ccc(F)cc12` [Compound 34], the EC50 in the data set on MRC-5 cell line was > 50 µM. Take `O=C(NCCN1CCC1)c1cc(-c2ccc(CN3CCOCC3)cc2)nc2ccc(F)cc12` [Compound 49, N-(2-(Azetidin-1-yl)ethyl)-6-fluoro-2-(4-(morpholinomethyl)phenyl)quinoline-4-carboxamide]: in data set [1] (mouse liver microsome), the “MLM Cli” value was found to be 0.5 mL min^–1 g^–1. The cure in the data set on P. berghei ANKA strain is 1/3. Regarding `CN(CCN1CCCC1)C(=O)c1cc(-c2ccc(CN3CCOCC3)cc2)nc2ccc(F)cc12` [Compound 47, 6-Fluoro-N-methyl-2-(4-(morpholinomethyl)phenyl)-N-(2-(pyrrolidin-1-yl)ethyl)quinoline-4-carboxamide], the “MLM Cli” value in data set [1] (mouse liver microsome) was <0.5 mL min^–1 g^–1. The compound further yielded a drop in potency with Pf (3D7) of 87 fold. `O=C(NCCN1CCCC1)c1cc(-c2cccc(CN3CCOCC3)c2)nc2ccc(F)cc12` [Compound 45]: the EC50 in data set [3] (setting [4]) amounted to 10.4 µM.
